These results are taken from ChEMBL document CHEMBL1150311, “4-Methyl-5-phenyl triazoles as selective inhibitors of 11beta-hydroxysteroid dehydrogenase type I” (Bioorg Med Chem Lett, 2008).

Experiment [1] deals with 11-beta-hydroxysteroid dehydrogenase 1 (Homo sapiens, UniProt P28845). Put plainly: Inhibition of human 11beta HSD1 by SPA assay.
In experiment [2] the target is 11-beta-hydroxysteroid dehydrogenase 1 (Mus musculus, UniProt P50172). Put plainly: Inhibition of mouse 11beta HSD1 by SPA assay.
For experiment [3], the target named is T1, 11-beta-hydroxysteroid dehydrogenase type 2 (Homo sapiens, UniProt P80365).
T1 sequence (P80365 whole entry): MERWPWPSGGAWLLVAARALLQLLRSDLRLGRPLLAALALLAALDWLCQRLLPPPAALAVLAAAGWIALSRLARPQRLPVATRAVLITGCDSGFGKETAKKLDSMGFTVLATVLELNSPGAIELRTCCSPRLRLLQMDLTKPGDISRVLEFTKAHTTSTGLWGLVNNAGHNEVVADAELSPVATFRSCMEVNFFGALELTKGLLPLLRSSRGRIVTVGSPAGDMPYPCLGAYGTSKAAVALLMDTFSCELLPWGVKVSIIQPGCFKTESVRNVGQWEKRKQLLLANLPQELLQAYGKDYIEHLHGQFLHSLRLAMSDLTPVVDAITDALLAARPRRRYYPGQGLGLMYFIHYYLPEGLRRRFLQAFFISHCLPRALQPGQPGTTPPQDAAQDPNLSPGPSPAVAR
Put plainly: Inhibition of human 11beta HSD2.

Experiment [4] addresses T2, 11-beta-hydroxysteroid dehydrogenase type 2 (Mus musculus, UniProt P51661).
T2 sequence (P51661 whole entry): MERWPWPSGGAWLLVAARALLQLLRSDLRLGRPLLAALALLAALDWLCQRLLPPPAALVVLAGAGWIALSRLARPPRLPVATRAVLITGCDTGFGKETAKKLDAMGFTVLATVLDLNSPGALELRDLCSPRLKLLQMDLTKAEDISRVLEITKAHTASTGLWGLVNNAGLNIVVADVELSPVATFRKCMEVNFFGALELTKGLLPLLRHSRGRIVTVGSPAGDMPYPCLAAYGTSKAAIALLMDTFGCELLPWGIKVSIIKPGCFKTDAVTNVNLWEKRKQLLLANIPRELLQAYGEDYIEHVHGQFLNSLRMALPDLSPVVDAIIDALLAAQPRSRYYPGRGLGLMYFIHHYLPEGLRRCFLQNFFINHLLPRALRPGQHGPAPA
Put plainly: Inhibition of mouse 11beta HSD2.

Experiment [5] concerns Mus musculus. Put plainly: Inhibition of [3H]cortisone to [3H]cortisol conversion in mouse at 10 mg/kg, po administered as single dose after 1 hr. The class given is functional.
In experiment [6] the test system is Mus musculus. Put plainly: Inhibition of [3H]cortisone to [3H]cortisol conversion in mouse at 10 mg/kg, po administered as single dose after 4 hrs. Type of experiment: functional.

Chain of 11-beta-hydroxysteroid dehydrogenase 1 (Mus musculus, UniProt P50172) (P50172 whole entry): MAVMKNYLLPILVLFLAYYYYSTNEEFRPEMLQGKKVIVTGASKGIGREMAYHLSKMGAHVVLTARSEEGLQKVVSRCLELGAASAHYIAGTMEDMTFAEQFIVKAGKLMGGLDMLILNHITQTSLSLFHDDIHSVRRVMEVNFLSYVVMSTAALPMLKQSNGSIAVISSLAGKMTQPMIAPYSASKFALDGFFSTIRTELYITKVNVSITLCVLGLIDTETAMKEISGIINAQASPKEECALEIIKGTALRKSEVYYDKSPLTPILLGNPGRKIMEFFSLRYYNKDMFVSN
Chain of 11-beta-hydroxysteroid dehydrogenase 1 (Homo sapiens, UniProt P28845) (P28845 whole entry): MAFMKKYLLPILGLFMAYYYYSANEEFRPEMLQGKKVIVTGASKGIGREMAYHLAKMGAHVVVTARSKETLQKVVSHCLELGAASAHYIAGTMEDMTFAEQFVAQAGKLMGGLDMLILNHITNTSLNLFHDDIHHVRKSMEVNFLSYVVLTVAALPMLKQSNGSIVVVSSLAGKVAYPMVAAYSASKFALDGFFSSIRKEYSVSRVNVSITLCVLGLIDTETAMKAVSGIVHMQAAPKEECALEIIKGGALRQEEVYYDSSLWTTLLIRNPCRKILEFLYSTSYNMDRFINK

The term IC50 denotes the midpoint of a concentration-inhibition curve. A lower IC50 goes with higher potency. As a reminder, the inhibition in vivo is the change of the read-out against control, counted positive when it falls. Consider `Cn1c(-c2ccccc2C(F)(F)F)nnc1C1(c2ccc(Cl)cc2)CCC1`, for which the IC50 in experiment [1] is 0.002 µM; in experiment [2], 0.004 µM; in experiment [3], over 4 µM; in experiment [4], over 4 µM. For the same compound, the inhibition in vivo at 10 mg/kg is 73% in the experiment with Mus musculus [5] and 63% in the experiment with Mus musculus [6].
In the case of `Cn1c(-c2ccc(Cc3ccccc3)cc2)nnc1C1(c2ccc(Cl)cc2)CCC1`, the IC50 was 0.068 µM in experiment [1], 0.018 µM in experiment [2], over 4 µM in experiment [3] and over 4 µM in experiment [4]. Besides, the results for the inhibition in vivo at 10 mg/kg in the experiment with Mus musculus [5] and in the experiment with Mus musculus [6] were 20% and -4%, respectively.
As for `Cn1c(-c2ccc(Cl)cc2Cl)nnc1C1(c2ccc(Cl)cc2)CCC1`, the IC50 is 0.001 µM in experiment [1], 0.013 µM in experiment [2], over 4 µM in experiment [3] and over 4 µM in experiment [4].
In the case of `COc1ccccc1-c1nnc(C2(c3ccc(Cl)cc3)CCC2)n1C`, the IC50 in experiment [1] is 0.0027 µM; in experiment [2], 0.0078 µM; in experiment [3] it was over 4 µM; in experiment [4] it was over 4 µM. Further, the figures for the inhibition in vivo at 10 mg/kg with Mus musculus [5] and in the experiment on Mus musculus [6] were 28% and 12%, respectively.
Take `Cn1c(-c2ccccc2O)nnc1C1(c2ccc(Cl)cc2)CCC1`: the IC50 in experiment [1] is 0.0018 µM; in experiment [2], 0.017 µM; in experiment [3] it was over 4 µM; in experiment [4], over 4 µM. In addition, the inhibition in vivo at 10 mg/kg in the experiment with Mus musculus [5] and in the experiment with Mus musculus [6] was -2% in each case.
For `Cc1nc2ccccc2n1-c1ccc(-c2nnc(C3(c4ccc(Cl)cc4)CCC3)n2C)c(Cl)c1`, the IC50 in experiment [1] was 0.012 µM; in experiment [2], 0.057 µM; in experiment [4], over 4 µM.
For the compound `Cc1ccccc1-c1nnc(C2(c3ccc(Cl)cc3)CCC2)n1C`, the IC50 in experiment [1] is 0.005 µM; in experiment [2], 0.021 µM; in experiment [3] it was over 4 µM; in experiment [4], over 4 µM. Also, the inhibition in vivo at 10 mg/kg in the experiment with Mus musculus [5] turned out to be 9%; with Mus musculus [6] it was 1%.
On to `Cn1c(-c2ccc(C(F)(F)F)cc2)nnc1C1(c2ccc(Cl)cc2)CCC1`, for which the IC50 in experiment [1] was 0.0093 µM; in experiment [2], 0.026 µM; in experiment [3], over 4 µM; in experiment [4], over 4 µM.
`COc1ccc(-c2nnc(C3(c4ccc(Cl)cc4)CCC3)n2C)cc1F`: the IC50 was 0.003 µM in experiment [1], 0.042 µM in experiment [2], over 4 µM in experiment [3] and over 4 µM in experiment [4]. Further, the inhibition in vivo at 10 mg/kg is 10% in the experiment on Mus musculus [5] and -1% in the experiment on Mus musculus [6].
Take `Cn1c(-c2ccccc2F)nnc1C1(c2ccc(Cl)cc2)CCC1`: the IC50 in experiment [1] is 0.002 µM; in experiment [2], 0.021 µM; in experiment [3] it was over 4 µM; in experiment [4], over 4 µM.
Consider `Cn1c(-c2ccc(-c3nccs3)cc2)nnc1C1(c2ccc(Cl)cc2)CCC1`, for which the IC50 in experiment [1] was 0.044 µM; in experiment [2], 0.0031 µM; in experiment [3] it was over 4 µM; in experiment [4], over 4 µM. Moreover, the inhibition in vivo at 10 mg/kg in the experiment with Mus musculus [5] amounted to 92%; in the experiment on Mus musculus [6], 67%.
`Cn1c(-c2ccccc2Cl)nnc1C1(c2ccc(Cl)cc2)CCC1`: the IC50 in experiment [1] is 0.00028 µM; in experiment [2] it was 0.0035 µM; in experiment [3], over 4 µM; in experiment [4], over 4 µM. The inhibition in vivo at 10 mg/kg in the experiment with Mus musculus [5] stood at 86%; in the experiment with Mus musculus [6], 73%.
Take `Clc1ccc(C2(c3nnc4n3CCCCCC4)CCC2)cc1`: the IC50 is 0.0013 µM in experiment [1], over 4 µM in experiment [3] and over 4 µM in experiment [4].
Turning to `Cn1c(-c2ccc(I)cc2)nnc1C1(c2ccc(Cl)cc2)CCC1`, the IC50 in experiment [1] was 0.0038 µM; in experiment [2] it was 0.0082 µM; in experiment [3], over 4 µM; in experiment [4] it was over 4 µM.
Take `Cn1c(-c2ccc(Oc3ccccc3)cc2)nnc1C1(c2ccc(Cl)cc2)CCC1`: the IC50 in experiment [1] was 0.026 µM; in experiment [2] it was 0.0037 µM; in experiment [3], over 4 µM; in experiment [4], over 4 µM.
As to `Cn1c(-c2ccc(Cl)cc2)nnc1C1(c2ccc(Cl)cc2)CCC1`, the IC50 is 0.0027 µM in experiment [1], 0.043 µM in experiment [2], over 4 µM in experiment [3] and over 4 µM in experiment [4]. Further, the inhibition in vivo at 10 mg/kg is 20% in the experiment with Mus musculus [5] and 14% in the experiment on Mus musculus [6].
As to `Cn1c(-c2ccc(-c3ccc(F)cc3)cc2)nnc1C1(c2ccc(Cl)cc2)CCC1`, the IC50 was 0.011 µM in experiment [1], 0.0091 µM in experiment [2], over 4 µM in experiment [3] and over 4 µM in experiment [4].
For the compound `C1CCc2nnc(C34CC5CC(CC(C5)C3)C4)n2CC1`, the IC50 was over 3 µM in experiment [3] and over 10 µM in experiment [4]. In addition, the inhibition in vivo at 10 mg/kg in the experiment with Mus musculus [5] stood at 31%; in the experiment on Mus musculus [6] it was 21%.
With `Cn1c(-c2ccc(C(C)(C)C)cc2)nnc1C1(c2ccc(Cl)cc2)CCC1`, the concentration for half-maximal inhibition (IC50) in experiment [1] is 0.014 µM; in experiment [2], 0.0018 µM; in experiment [3] it was over 4 µM; in experiment [4], over 4 µM.
`Cn1c(-c2ccc(OC(F)(F)F)cc2)nnc1C1(c2ccc(Cl)cc2)CCC1`: the IC50 in experiment [1] was 0.013 µM; in experiment [2] it was 0.0069 µM; in experiment [3] it was over 4 µM; in experiment [4], over 4 µM. In addition, the inhibition in vivo at 10 mg/kg turned out to be 64% in the experiment with Mus musculus [5] and 27% in the experiment with Mus musculus [6].
In the case of `Cn1c(-c2ccc(-n3cccc3)cc2)nnc1C1(c2ccc(Cl)cc2)CCC1`, the IC50 in experiment [1] is 0.003 µM; in experiment [2], 0.0054 µM; in experiment [3], over 4 µM; in experiment [4], over 4 µM. Besides, the inhibition in vivo at 10 mg/kg was determined as 41% in the experiment with Mus musculus [5] and 28% with Mus musculus [6].
As to `Cn1c(-c2ccc(-n3ccnc3)cc2)nnc1C1(c2ccc(Cl)cc2)CCC1`, the IC50 in experiment [1] was 0.0035 µM; in experiment [2] it was 0.046 µM; in experiment [3], over 4 µM; in experiment [4] it was over 4 µM. For the same compound, the values for the inhibition in vivo at 10 mg/kg in the experiment on Mus musculus [5] and in the experiment on Mus musculus [6] were 79% and 44%, respectively.
In the case of `Cn1c(-c2ccc(-c3ccccc3)cc2)nnc1C1(c2ccc(Cl)cc2)CCC1`, the IC50 is 0.011 µM in experiment [1], 0.004 µM in experiment [2], over 4 µM in experiment [3] and over 4 µM in experiment [4]. Also, the inhibition in vivo at 10 mg/kg with Mus musculus [5] is 86%; in the experiment on Mus musculus [6] it was 90%.
Take `Cn1c(-c2ccccc2)nnc1C1(c2ccc(Cl)cc2)CCC1`: the concentration for half-maximal inhibition (IC50) in experiment [1] was 0.0017 µM; in experiment [2] it was 0.052 µM; in experiment [3], over 4 µM; in experiment [4], over 4 µM. In addition, the figures for the inhibition in vivo at 10 mg/kg in the experiment on Mus musculus [5] and in the experiment with Mus musculus [6] were 47% and 29%, respectively.
Regarding `Cn1c(-c2cccc(OC(F)(F)F)c2)nnc1C1(c2ccc(Cl)cc2)CCC1`, the IC50 was 0.0022 µM in experiment [1], 0.036 µM in experiment [2], over 4 µM in experiment [3] and over 4 µM in experiment [4].
As for `Cn1c(-c2cccc(Cl)c2)nnc1C1(c2ccc(Cl)cc2)CCC1`, the IC50 was 0.001 µM in experiment [1], 0.034 µM in experiment [2], over 4 µM in experiment [3] and over 4 µM in experiment [4]. Further, the inhibition in vivo at 10 mg/kg in the experiment on Mus musculus [5] was 24%; in the experiment on Mus musculus [6], 12%.
In the case of `Cc1cn(-c2ccc(-c3nnc(C4(c5ccc(Cl)cc5)CCC4)n3C)c(Cl)c2)c(C)n1`, the values for the IC50 in experiment [1], in experiment [2] and in experiment [4] were 0.0069 µM, 0.0072 µM and over 4 µM, respectively.
Regarding `Cn1c(-c2ccccc2)nnc1C12CC3CC(CC(C3)C1)C2` [FIG 1], the IC50 in experiment [1] is 0.037 µM; in experiment [2] it was 0.109 µM; in experiment [3] it was over 4 µM; in experiment [4] it was over 4 µM. Also, the figures for the inhibition in vivo at 10 mg/kg in the experiment on Mus musculus [5] and in the experiment on Mus musculus [6] were 85% and 47%, respectively.
Take `Cn1c(-c2cccc(F)c2)nnc1C1(c2ccc(Cl)cc2)CCC1`: the IC50 in experiment [1] is 0.0022 µM; in experiment [2], 0.163 µM; in experiment [3], over 4 µM; in experiment [4] it was over 4 µM.
Consider `Cn1c(-c2cccc(O)c2)nnc1C1(c2ccc(Cl)cc2)CCC1`, for which the IC50 in experiment [1] was 0.001 µM; in experiment [2], 0.019 µM; in experiment [3], over 4 µM; in experiment [4], over 4 µM.
Turning to `CSc1nccn1-c1ccc(-c2nnc(C3(c4ccc(Cl)cc4)CCC3)n2C)c(Cl)c1`, the IC50 is 0.0039 µM in experiment [1], 0.0039 µM in experiment [2] and over 4 µM in experiment [4].
With `Cn1c(-c2ccc(F)cc2)nnc1C1(c2ccc(Cl)cc2)CCC1`, the IC50 was 0.0015 µM in experiment [1], 0.101 µM in experiment [2], over 4 µM in experiment [3] and over 4 µM in experiment [4].
